In series [1] the test system is MCF-7 cells. Briefly: Cell cycle analysis by flow cytometry. In kind it is cell-based, human. To be noted: 48 hours (control 63.1%). Here is the method:
For the determination of cell cycle phase distribution, 3×10^5 MCF-7 cells were first exposed to various concentrations of aurovertin B in DMEM with 10% FBS for 48 hr by flow cytometric analysis. The cells were trypsinized, collected and fixed in 70% cold ethanol (−20° C.) overnight. After washing twice with PBS, cells were resuspended in PBS. RNase A (1 mg/mL) and PI (10 μg/mL) were added to the fixed cells for 30 min. The DNA content of cells was then analyzed with a FACSCanto instrument (Becton Dickinson, San Jose, Calif., USA). The percentage of cells in different phases of the cell cycle was calculated by MultiCycle (DeNovo software, Ontario, Canada).

Series [2] relates to HeLa cervical cancer cells. The conditions noted are these: Acta Biochimica Polonica 2004; cited from earlier work.
For another series, the system named is CL1-5 lung cancer cells. Kind of series: cells. In kind it is cell-based, human. The conditions noted are these: for IC50: Homo sapiens. The text has this: (§1) Apart from the traditional role in ATP production, ATP synthase may play critical roles in tumor cell metastases. Human lung adenocarcinoma cell lines CL1-1 and CL1-5 with different metastasis were obtained from the American Type Culture Collection (Manassas, Va.), and human normal lung cell line IMR-90 was obtained from Institute of Biomedical Sciences, Academia Sinica. The CL1-5 cell line is highly metastatic lung cancer cells, but the CL1-1 cell line is low metastatic lung cancer cells.
(§2) Human lung adenocarcinoma cell lines were maintained in DMEM at 37° C. with 5% CO2 (Gibco, Carlsbad, Calif., USA), 5% fetal bovine serum (Gibco), 50 units/mL penicillin, and 50 μg/mL streptomycin (Gibco). IMR-90 cells were culture in DMEM (Gibco), 0.01 mg/mL Insulin, 5 μg/mL Hydrocortisone.
(§3) As shown in FIG. 9 to FIG. 11, cell proliferation assays were in the presence of three F1-targeting H-ATP synthase inhibitors: aurovertin B, resveratol, and piceatannol. […] Thus, aurovertin B caused significant apotosis in CL1-1 and CL1-5 cells.

The test system of another series is CL1-1 lung cancer cells. Kind of series: cells. In kind it is cell-based, human. The conditions noted are these: for IC50: Homo sapiens.
Text: as §1, §2, §3

Series [3] concerns MCF-7 cells. Kind of series: Annexin V-FITC/PI analysis of apoptosis. In kind it is cell-based, human. To be noted: MCF-7, 0.05-10 μM, 48 hours. As to the method: Flow cytometric analysis was performed to identify and quantify the apoptotic cells by using Annexin V-FITC/PI (propidium iodide) apoptosis detection kit (Santa Cruz Biotechnology, Santa Cruz, Calif., USA). […] After incubation, floating and adherent cells were harvested. Cells were washed carefully with cold PBS at 4° C. Cell pellets were resuspended in […] of binding buffer. Annexin-V FITC (0.2 μg/100 μL) and PI (10 μg/mL) was added to the cells and left for incubation in the dark for 15 min at room temperature. All data were acquired by flow cytometry using a FACSCanto cytometer (Becton Dickinson, San Jose, Calif., USA). The flow cytometric analysis was performed using FCS Express 3.0 (DeNovo software).

For series [4], the system named is MCF-7 cells. Briefly: DAPI staining of nuclear morphology. In kind it is cell-based, human. The conditions noted are these: MCF-7, 48 h, IC50 concentration. As to the method: After treatment for 48 h with DMSO (control) or aurovertin B (at their respective IC50 concentrations), cells were fixed in 4% paraformaldehyde for 15 min and stained with DAPI (2 μg/mL in PBS) for 15 min at 37° C. to detect apoptotic bodies (Sigma, St. Louis, Mo., USA). Results were determined by visual observation of nuclear morphology via fluorescence microscopy.

For series [5], the system named is MDAMB231 breast cancer cell line. Briefly: MTT assay, cell viability. It is filed as cell-based. To be noted: Homo sapiens, MDA-MB-231, MDAMB231, 48 hours. As to the method:
(§4) Human breast cancer cell lines, MCF-7, MDA-MB231, T47D and human normal breast cell line MCF-10A, were obtained from the American Type Culture Collection (Manassas, Va.). Human breast cancer cell lines were maintained in DMEM at 37° C. with 5% CO2 (Gibco, Carlsbad, Calif., USA), 5% fetal bovine serum (Gibco), 50 units/mL penicillin, and 50 μg/mL streptomycin (Gibco). MCF-10A cells were culture in DMEM (Gibco), 0.01 mg/mL Insulin, 5 μg/mL Hydrocortisone.
(§5) Cytotoxic effects on the growth and viability of cells were determined using MTT (3(4,5-dimethylthiazol-2-yl)-2,5-diphenyltetrazolium bromide, a tetrazole) assay. 10^4 cells/mL were plated in 96-well plates and allowed to attach for 24 hours. Cells were treated with […] of aurovertin B, resveratrol and piceatannol for 48 hours. At the end of the incubation period, MTT reagent (10 μL) was added to each 100 μL of culture. After incubation for 4 hr at 37° C., the formed water insoluble formazan dye was solubilized by adding 100 μL of DMSO to the culture wells. The plates were further incubated for 15 min at room temperature, and optical density (OD) of the wells was determined using ELISA microplate reader at a test wavelength of 570 nm. All experiments were performed in triplicates.

The subject of series [6] is T47D breast cancer cell line. Kind of series: MTT assay, cell viability. In kind it is cell-based. The conditions noted are these: Homo sapiens, 48 hours. As to the method:
as §4, §5
For orientation: Formazan colour is commonly taken as a measure of viable cells.

Series [7] can be described thus: Viable cell number counting using trypan blue. It is filed as cell-based. To be noted: human; IMR-90 normal lung cells, same time points; read-out: cell viability rate.
Text: as §1, §2, §3

Series [8] deals with normal breast cell line MCF-10A. Briefly: MTT assay, cell viability. It is filed as cell-based, human. To be noted: MCF-10A, under these concentrations. Here is the method: as §4, §5
Series [9] has as its system MCF-7 breast cancer cells. Briefly: MTT assay, cell viability. It is filed as cell-based, human. To be noted: MCF-7, 48 hours. As to the method: as §4, §5
Series [10] can be described thus: MTT assay, cell viability. It is filed as cell-based, human. To be noted: human; MCF-10A normal breast cells, same time points; read-out: cell viability rate. Here is the method:
as §4, §5

“Also recorded” adds a separate entry of the source. Read-outs that look alike come from different tables or passages of the source. A value given as a limit tells only on which side of the number the result lay.

Broadly, the IC50 is the concentration needed to halve the response being measured. What is called viability is the share of living cells, or the viability signal relative to a control. Consider `CC[C@H]1OC2(C)C(OC(C)=O)[C@@]1(C)OC(/C=C/C=C/C=C/c1oc(=O)cc(OC)c1C)[C@@H]2O` (stereo partly drawn) [aurovertin B], for which the “percentage of cells in G0/G1 phase” value is 66.5% in the series on MCF-7 cells [1] (MCF-7, 0.1 μM); 78.5% in the series on MCF-7 cells [1] (MCF-7, 1 μM); 81.2% with MCF-7 cells [1] (MCF-7, 5 μM). Moreover, in [2], the “release of cytochrome c and apoptosis” value is “didn't affect the release of cytochrome c and apoptosis; also recorded: can't cause apotosis”. Also, the IC50 is about 500 nM with CL1-5 lung cancer cells (CL1-5, CL1-5, highly metastatic lung cancer cells); 100 to 500 nM with CL1-1 lung cancer cells (CL1-1); 5520 nM in series [5]; 890 nM in [6]; 100 nM in series [9] (Homo sapiens, MCF7, 48 h); 90 nM in series [9]. In addition, in the series on MCF-7 cells [3], the “early and late apoptotic/necrotic cells” value was “dose-dependent increase in both early and late apoptotic/necrotic cells”. Besides, in the series on MCF-7 cells [4], the “morphological changes of the nuclei” value is “condensation and shrinkage of nuclei”. The viability in series [7] is at least 60%. Further, in series [8], the “cytotoxicity to normal cells” value is reported as “no apparent cytotoxicity”. Moreover, in series [10], the viability at 48 h was at least 80%.
As for `Oc1cc(O)cc(/C=C/c2ccc(O)c(O)c2)c1` [piceatannol], the cell viability rate in the series on CL1-5 lung cancer cells (CL1-5) and with CL1-1 lung cancer cells (CL1-1) was at least 80% in each case. The viability in series [7] worked out at 60%.
As to `Oc1ccc(C=Cc2cc(O)cc(O)c2)cc1` [resveratrol], the IC50 in the series on CL1-5 lung cancer cells (CL1-5, highly metastatic lung cancer cells, read-out: IC50) is about 5000 nM; with CL1-1 lung cancer cells (CL-11, CL1-1, low metastatic lung cancer cells, read-out: IC50), 10000 nM. For the same compound, in series [7], the viability was at most 60%.

Source of the values: US20100190845A1, “METHOD OF TREATING CANCER USING ATP SYNTHASE INHIBITORS” (NATIONAL TAIWAN UNIVERSITY, priority 2009, published 2010).
